# Laboratory results as given in the supplement of paper PMC10307832.
# Assays:
# [1] = compound: CCOC1=CC=CC=C1N=NC2=C(NN(C2=O)C3=NC(=CS3)C4=CC=CC=C4)C [BAM7]; assay: relative viability (nuclei count vs DMSO), 5 days (fraction); higher = more cells survive
# How it was run: (§1)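 Viability was read as treated-well nuclei divided by vehicle-well nuclei, using the median across plates. Lung cancer cell lines in 1536-well plates were kept overnight at 37 °C, pinned with five √10-spaced library-drug doses, and after 5 days were Hoechst-stained, imaged at 4× and counted in MetaXpress. Plates passed only with control CV below 25% and at least one doubling.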
# [2] = compound: CCn1c(-c2nonc2N)nc2c(C#CC(C)(C)O)ncc(OC[C@H]3CCCNC3)c21; assay: as above
# How it was run: as §1
Cell Line,relative viability ([1]; 0.5 µM),relative viability ([1]; 5 µM),relative viability ([1]; 15.81 µM),relative viability ([1]; 50 µM),relative viability ([2]; 0.01 µM),relative viability ([2]; 0.03162 µM),relative viability ([2]; 0.1 µM),relative viability ([2]; 0.3162 µM),relative viability ([2]; 1 µM)
NCI-H358,0.96,1.19,0.942,0.912,0.905,1.01,0.935,0.912,0.913
NCI-H441,1.16,1.06,1.1,1.44,0.927,1.05,1.04,0.948,0.99
NCI-H460,1.02,0.989,0.895,0.969,0.977,0.983,0.983,0.998,0.949
NCI-H520,1,1.02,1.01,1.09,0.905,0.921,0.779,0.753,0.665
NCI-H522,0.981,1.07,1.01,1.07,1.07,1.03,0.972,0.826,1.02
NCI-H596,0.965,1.08,0.957,1.07,0.947,0.962,0.752,0.936,1.06
NCI-H647,1.02,1.07,0.894,1.07,0.982,0.995,0.952,0.918,0.981
NCI-H650,0.944,1.1,0.955,1.22,0.788,0.854,0.854,0.998,0.832
NCI-H661,0.984,1.03,0.965,1.03,1.01,1.03,0.976,1.01,0.972
NCI-H727,0.962,0.811,0.881,0.937,1.02,0.866,0.871,0.848,0.973
NCI-H838,1.03,1.04,0.946,1.06,1.01,1,0.993,0.846,0.963
NCI-H1299,1.01,1.06,1.01,1.01,0.984,1.05,1.01,1.01,1.04
NCI-H1355,0.971,0.888,0.862,0.91,0.932,0.904,0.958,0.945,0.992
NCI-H1395,0.884,1.01,0.944,1.1,0.848,0.693,0.762,0.737,0.705
NCI-H1437,0.991,1.02,0.928,1.01,0.957,0.974,1.05,0.935,1.1
NCI-H1563,0.967,1.04,0.995,1.02,1.01,0.984,0.96,0.901,0.89
NCI-H1623,1.06,0.974,0.768,0.896,1.07,1.02,0.963,0.967,1.09
NCI-H1648,0.786,0.754,0.608,0.708,0.922,0.869,0.775,0.851,0.973
NCI-H1650,1.02,0.884,0.826,1.04,0.941,0.994,0.877,0.841,0.833
NCI-H1651,1.02,1,1,1.05,0.941,0.935,0.95,0.924,1.01
NCI-H1666,1.03,1,1.09,1.05,1.02,0.956,1.01,0.949,0.954
NCI-H1703,1.04,0.989,0.808,1,0.828,0.973,0.839,0.788,0.612
NCI-H1734,1.03,1.07,1,1.1,0.95,0.978,0.893,0.932,0.86
NCI-H1755,1.02,1.03,0.978,1.02,0.989,1.03,0.973,0.903,1.01

Cell Line,relative viability ([1]; 0.5 µM),relative viability ([1]; 5 µM),relative viability ([1]; 15.81 µM),relative viability ([1]; 50 µM),relative viability ([2]; 0.01 µM),relative viability ([2]; 0.03162 µM),relative viability ([2]; 0.1 µM),relative viability ([2]; 0.3162 µM),relative viability ([2]; 1 µM)
NCI-H1792,1.02,1.06,1.07,0.873,0.887,0.636,0.939,0.908,0.932
NCI-H1793,0.963,0.838,0.899,1.03,0.936,0.879,0.751,0.859,0.942
NCI-H1915,1.01,1.13,0.989,0.991,0.965,1.03,0.917,0.983,0.996
NCI-H1944,0.947,0.949,0.857,1,0.941,0.922,0.919,0.935,1.01
NCI-H1975,0.823,0.898,0.775,0.903,0.932,1,0.96,0.921,0.843
NCI-H1993,0.776,0.764,0.744,0.737,0.968,0.976,0.985,0.92,0.852
NCI-H2009,1.04,1.12,0.994,1.04,1,1,1.02,0.95,0.932
NCI-H2023,0.917,0.823,0.793,1.02,0.929,0.949,0.909,0.767,0.834
NCI-H2085,0.995,0.976,0.933,1.01,0.991,0.977,1,0.937,0.97
NCI-H2087,1.18,1.14,1.11,1.13,0.931,1.05,1.04,1.06,0.915
NCI-H2126,0.944,0.879,0.867,0.898,0.98,0.908,0.995,0.996,1.02
NCI-H2170,0.972,0.993,0.904,0.958,0.962,1.01,0.996,0.91,0.958
NCI-H2228,1.06,0.968,0.914,1.2,0.938,1.1,1.04,0.848,0.809
NCI-H2342,0.851,0.994,0.89,0.708,0.957,0.881,0.99,0.91,0.964
NCI-H2347,1.13,1.11,1.06,1.03,1,1.03,0.956,1,0.93
NCI-H2405,0.989,1.13,1.03,1.08,1.05,0.934,0.973,0.969,0.993
NCI-H3122,1.02,1.09,1.01,1.01,1,0.973,1.06,0.991,1.01
PC-3 [JPC-3],0.967,1.02,0.974,0.917,1.02,1.02,1.05,0.996,1.08
PC-14,1.04,1.06,1,1.01,0.937,1,1.11,0.954,1.03
RERF-LC-KJ,0.94,0.913,0.745,0.812,0.959,0.97,0.99,0.966,1.05
SK-LU-1,1.04,1.24,0.962,1.13,1.06,1.09,0.88,0.953,0.966
SK-MES-1,1.04,1.08,0.973,1.03,0.998,1.01,1.02,0.944,0.993
SW 900,0.781,0.826,0.708,1.03,0.796,0.73,0.76,0.822,0.892
SW 1573,1.03,1.18,0.969,1.08,0.98,0.932,0.871,0.677,0.777
